Consider five compounds from EP1214345B1, “AGENTS FOR TREATING HUMAN DISEASES, ESPECIALLY FOR TREATING TUMORS SUCH AS COLONIC CANCERS AND MELANOMAS OR FOR REGENERATING TISSUE AND PROMOTING HAIR GROWTH” (MAX-DELBRÜCK-CENTRUM FÜR MOLEKULARE MEDIZIN, priority 1999, dated 2001).

The target in the test is T1, Komplexbildung von β-Catenin und LEF-1 (Homo sapiens, UniProt P35222).
T1 construct: made in house
T1 sequence (P35222 1-781): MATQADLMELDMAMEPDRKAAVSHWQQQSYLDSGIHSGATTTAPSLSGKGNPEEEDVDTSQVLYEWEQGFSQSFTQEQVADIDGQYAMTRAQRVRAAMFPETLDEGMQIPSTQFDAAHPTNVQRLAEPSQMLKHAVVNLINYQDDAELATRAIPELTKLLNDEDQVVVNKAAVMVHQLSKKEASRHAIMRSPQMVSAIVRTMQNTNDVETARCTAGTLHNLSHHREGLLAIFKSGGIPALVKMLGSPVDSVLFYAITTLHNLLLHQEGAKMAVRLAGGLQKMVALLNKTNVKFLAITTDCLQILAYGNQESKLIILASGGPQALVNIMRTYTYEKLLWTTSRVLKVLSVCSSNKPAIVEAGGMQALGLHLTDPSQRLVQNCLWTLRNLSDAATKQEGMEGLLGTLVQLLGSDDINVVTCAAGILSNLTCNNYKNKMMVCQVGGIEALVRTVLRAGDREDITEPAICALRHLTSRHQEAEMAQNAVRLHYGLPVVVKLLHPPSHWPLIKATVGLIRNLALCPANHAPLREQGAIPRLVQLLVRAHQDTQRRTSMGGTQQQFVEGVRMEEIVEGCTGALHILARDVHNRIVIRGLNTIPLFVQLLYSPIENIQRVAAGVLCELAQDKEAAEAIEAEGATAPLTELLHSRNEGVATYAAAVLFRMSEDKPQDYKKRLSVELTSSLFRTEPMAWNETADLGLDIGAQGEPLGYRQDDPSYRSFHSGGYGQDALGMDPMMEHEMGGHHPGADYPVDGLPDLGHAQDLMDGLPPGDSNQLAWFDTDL
Put plainly: ELISA for inhibition of complex formation of β-Catenin and LEF-1 (recombinant His-tagged proteins, detection with antibody PA2). It is filed as binding. The conditions noted are these: recombinant LEF-1 adsorbed, 50-100 ng β-Catenin, 10% DMSO final, substances 1 µM to 10 mM, read-out: IC50 Hemmung der Komplexbildung von β-Catenin und LEF/TCF. An excerpt:
Im Einzelnen wurden folgende Untersuchungen durchgerührt: • 1. Identifizierung von separaten, essentiellen Bindungsstellen von β-Catenin für die Interaktion mit LEF-1/TCF-4, mit den 20 und 15 Aminosäure-Repeats von APC oder Conductin/Axin Basierend auf der Röntgen-Kristall-Strukturanalyse der Armadillo-Domäne von β-Catenin (Huber et al., 1997) wurden ausgewählte basische und aromatische Aminosäure-Reste durch Alanin-Reste substituiert und die Punktmutanten auf Interaktion mit den Bindungspartnern von β-Catenin im Hefe-2-Hybrid-System analysiert (Abb. 1). Die Mutationen, welche spezifische Interaktionen blockieren, bilden Cluster in separaten Subregionen der Domäne. Sie markieren die essentiellen Kontaktpunkte in den spezifischen Bindungsstellen für die Interaktion mit LEF/TCF (Lys 435, Arg 469, His 470, Lys 508, Arg 515), mit den 20 Aminosäure-Repeats von APC (Trp 383, Lys 345), mit den 15 Aminosäure-Repeats von APC (Arg 386), oder mit Conductin (Phe 253, His 260, Lys 292). Die erweiterten Interaktionsstellen sind der Abb 1 zu entnehmen. • 2. Analyse der Moleküloberfläche von β-Catenin im Bereich der essentiellen Bindungsstelle für LEF/TCF Ausgehend von den Daten zur Röntgenkristallstruktur von β-Catenin wurde mit den Programmen Grasp und LUDI (MSI) die Moleküloberfläche im Bereich der Bindungsstelle berechnet. Es ist hierdurch gelungen eine hydrophobe Tasche zu identifizieren (Abb.2), die von den folgenden Aminosäuren umrandet ist: Val 358, Met 363, Ala 391, Ala 392, Thr 393, Lys 394, Gln 395, Met 398, Leu 401, Leu 402, Ile 423, Asn 426, Leu 427, Thr 428, Cys 429, Asn 430, Asn 431, Asn 434, Met 437, Val 438. Diese Tasche lokalisiert in engster Nachbarschaft zu der essentiellen Bindungsstelle für LEF/TCF. Sie ist von großer Bedeutung für die Computer-gestützte Durchmusterung von Substanzbibliotheken zur Selektion von Molekülen, die in dieser Tasche binden. Die Idee primär hydrophobe Wechselwirkungen in der Tasche zum Ausgangspunkt zu wählen, hat den energetischen Vorteil, das die Substanzen nicht mit der Hydrathülle der geladenen Aminosäure-Reste der Oberfläche kompetieren müssen. Diese Substanzen stellen somit nach gezielter Modifikation potente Therapeutika zur Behandlung von Tumoren dar, da die Interaktion von LEF/TCF mit β-Catenin ein frühes Ereignis zur Entstehung von Tumoren darstellt. Sie wurden experimentell auf ihre Fähigkeit zur Hemmung der onkogenen Interaktion getestet (ELISA) und sollen modifiziert werden. Das molekulare Modellieren der Substanzen in der Tasche basiert auf der Idee, die Wechselwirkungen in der Tasche selbst zu stabilisieren und zusätzliche Kontakte zu den essentiellen Aminosäure-Resten der LEF/TCF-Bindungsstelle zu schaffen. Durch diese Strategie sollen die Substanzen in ihrer Wirkung optimiert werden. • 3. Identifizierung von Substanzen die in der hydrophoben Tasche binden Es wurden Computer-gestützt Substanzbibliotheken durchmustert und deren Moleküle auf stabilisierende Wechselwirkungen in der hydrophoben Tasche ausgewählt. Die ausgewählten Substanzen wurden auf Hemmung der Komplexbildung von β-Catenin und LEF-1 im ELISA experimentell getestet. […] Diese Kernstruktur besteht aus einem aromatischem Ring (beim Cefamandole am Kohlenstoffatom 17, Numerierung siehe "Positiv-Liste")), einer organischen Komponente, die der Struktur des Ala-Ala Dipeptides ähnelt, und einem β-Lactam- und Thiazolring. Mit dem aromatischen Ring wurde die Substanz in der beschriebenen hydrophoben Tasche eingepaßt. […]
As for `CCCCCCCCCCCCCCCCCC(=O)OC[C@H]1OC(O)[C@H](NC(C)=O)[C@@H](O[C@H](C)C(=O)N[C@@H](C)C(=O)N[C@H](CCC(=O)O)C(N)=O)[C@@H]1O` (stereo partly drawn) [AC-(6-O-Stearoyl)-Muramyl-Ala-D-Isoglutamine], the IC50 was 100 µM.
In the case of `CC1=C(C(=O)O)N2C(=O)[C@@H](NC(=O)[C@H](N)c3ccc(O)cc3)[C@H]2SC1` [Cefadroxil] it was 50 to 100 µM; in that of `Cn1nnnc1SCC1=C(C(=O)O)N2C(=O)[C@@H](NC(=O)[C@H](OC=O)c3ccccc3)[C@H]2SC1` [Cefamandole-Nafate], 50 to 100 µM; in that of `Cn1nnnc1SCC1=C(C(=O)O)N2C(=O)[C@@H](NC(=O)[C@H](O)c3ccccc3)[C@H]2SC1` [Cefamandole], 25 µM.
In the case of `NC(=O)c1cc[n+](CC2=C(C(=O)O)N3C(=O)[C@@H](NC(=O)[C@@H](c4ccccc4)S(=O)(=O)[O-])[C@H]3SC2)cc1` [Cefsulodine] it was 50 to 100 µM.
